Laboratory results published in patent EP1505064A1, “2-Aminopyrimidine derivatives” (Bayer HealthCare AG, priority 2003, dated 2005).
Structures can show the parent of a compound that is named as a salt.

Biological target: human H4 (Homo sapiens, UniProt Q9H3N8)
Experiment: Calcium mobilization in CHO cells transfected with human H4 (Assay 1)
Format: cell-based
Details: calcium mobilization induced by 100 nM histamine in CHO-H4 cells; compounds at purity of about 40 to 90%; read-out: Activity Class
Experimental: [Calcium Mobilization in CHO cells transfected with human H4] (Assay1)
A fusion construct consisting of the n-terminal part of H4 and the C-terminal part of the G protein Gα 6 was transfected into CHO cells containing the aequorin-controlled luciferase gene (CHOAQLuci cells). Recombinant clones showing aequorin luminescence after the addition of 1 µM histamine were isolated. Starting with three independent primary cell clones three sets of tertiary clones were generated by two successive rounds of limiting dilution. Analysis of the primary clones as well as each subcloning by limiting dilution was monitored by "clone-pool analysis" comparing H4-transfected to mock-transfected (expression vector without H4 receptor cDNA) clones.
CHO-H4 cells were seeded at 2 x 10^4 cells per well in Biocoat poly-D-Lysine 96 well black/clear plates (BECTON DICKINSON, Franklin Lakes, US) in D-MEM/F12 medium supplemented with 10% FCS and 400 µg/ml Geneticin (Invitrogen GIBCO, Carlsbad, US) and 2 mM butylrate for O/N. The medium was removed and cells were loaded with 1 µM Fluo-3 (Molecular Probes, Eugene, USA) in loading solution (0.1% BSA, 20mM HEPES Hank's Buffer, 1mM probinecid) for 1 h. The loading buffer was removed and exchanged for fresh loading buffer. Cells were pretreated with various concentrations of test compounds and subjected to calcium mobilization measurement induced by 100 nM histamine by using FDSS6000.
Assay results in Assay 1 are shown in Examples and tables of the Examples below. The data corresponds to the compounds as yielded by solid phase synthesis and thus to levels of purity of about 40 to 90%. For practical reasons, the compounds are grouped in four classes of activity as follows: A IC50 20nM < B IC50 100nM C < IC50 500nM D

Sequence of human H4 (Q9H3N8 whole entry): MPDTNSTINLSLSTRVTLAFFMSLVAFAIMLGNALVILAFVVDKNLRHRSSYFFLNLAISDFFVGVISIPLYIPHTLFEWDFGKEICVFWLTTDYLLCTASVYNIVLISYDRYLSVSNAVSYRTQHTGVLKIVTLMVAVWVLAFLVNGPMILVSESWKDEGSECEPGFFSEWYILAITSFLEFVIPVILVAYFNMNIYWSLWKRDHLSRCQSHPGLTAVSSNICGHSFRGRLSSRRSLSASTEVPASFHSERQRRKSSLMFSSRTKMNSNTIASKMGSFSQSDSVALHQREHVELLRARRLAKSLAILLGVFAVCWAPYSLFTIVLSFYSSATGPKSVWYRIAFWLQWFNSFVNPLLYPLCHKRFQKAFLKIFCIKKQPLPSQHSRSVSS

## CNC1CCN(c2cc(-c3ccccc3)nc(N)n2)C1 (stereo not drawn) [Example 1, 4-[3-(Methylamino)pyrrolidin-1-yl]-6-phenylpyrimidin-2-amine trihydrochloride]
  IC50: < 20 nM

## CNC1CCN(c2cc(-c3cccc(C#N)c3)nc(N)n2)C1 (stereo not drawn) [Example 2, 3-{2-Amino-6-[3-(methylamino)pyrrolidin-1-yl]pyrimidin-4-yl}benzonitrile trihydrochloride]
  IC50: 20 to 100 nM

## Nc1nc(-c2ccccc2)cc(N2CCC(N)C2)n1 (stereo not drawn) [Example 3, 4-(3-aminopyrrolidin-1-yl)-6-phenylpyrimidin-2-amine trihydrochloride]
  IC50: 20 to 100 nM

## CN[C@@H]1CCN(c2cc(-c3cccc([N+](=O)[O-])c3)nc(N)n2)C1 [Example 6, 4-[(3R)-3-(methylamino)pyrrolidin-1-yl]-6-(3-nitrophenyl)pyrimidin-2-amine trihydrochloride]
  IC50: < 20 nM

## CN[C@H]1CCN(c2cc(-c3cccc([N+](=O)[O-])c3)nc(N)n2)C1 [Example 7, 4-[(3 S)-3-(methylamino)pyrrolidin-1-yl]-6-(3-nitrophenyl)pyrimidin-2-amine trihydrochloride]
  IC50: 100 to 500 nM

## CN[C@H]1CCN(c2cc(-c3ccccc3)nc(N)n2)C1 [Example 8, 4-[(3S)-3-(methylamino)pyrrolidin-1-yl]-6-phenylpyrimidin-2-amine trihydrochloride]
  IC50: 20 to 100 nM
